Measurements: ChEMBL document CHEMBL1909046, “DrugMatrix in vitro pharmacology data”

Assays:
[1] = target: Mitogen-activated protein kinase 1 (Homo sapiens, UniProt P28482); test: DRUGMATRIX: Protein Serine/Threonine Kinase, ERK2 enzyme inhibition (substrate: Myelin Basic Protein); design: species or system Escherichia coli; conditions: Not Active = under 50% inhibition at 10 µM
[2] = target: Vasopressin V1a receptor (Homo sapiens, UniProt P37288); type: cell membranes, Membrane; conditions: hek293; note: in other assays of this panel Not Active means under 50% inhibition at 10 µM
Sequence of Vasopressin V1a receptor (P37288 whole entry): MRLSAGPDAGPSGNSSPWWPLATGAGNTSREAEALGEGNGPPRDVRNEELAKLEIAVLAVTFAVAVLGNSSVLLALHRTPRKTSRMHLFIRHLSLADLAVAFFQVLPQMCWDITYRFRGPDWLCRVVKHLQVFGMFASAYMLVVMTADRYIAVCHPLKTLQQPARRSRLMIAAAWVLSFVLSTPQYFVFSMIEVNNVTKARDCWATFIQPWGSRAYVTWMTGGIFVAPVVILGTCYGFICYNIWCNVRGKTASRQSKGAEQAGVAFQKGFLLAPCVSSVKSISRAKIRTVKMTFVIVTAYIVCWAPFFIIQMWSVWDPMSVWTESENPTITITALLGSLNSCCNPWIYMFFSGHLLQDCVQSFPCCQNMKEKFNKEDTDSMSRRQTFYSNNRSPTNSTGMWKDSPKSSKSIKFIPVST

[3] = target: Sigma non-opioid intracellular receptor 1 (Homo sapiens, UniProt Q99720); test: DRUGMATRIX: Sigma1 radioligand binding (ligand: [3H] Haloperidol); type: cell membranes, Jurkat, Membrane; conditions: jurkat; Not Active = under 50% inhibition at 10 µM
Sequence of Sigma non-opioid intracellular receptor 1 (Q99720 whole entry): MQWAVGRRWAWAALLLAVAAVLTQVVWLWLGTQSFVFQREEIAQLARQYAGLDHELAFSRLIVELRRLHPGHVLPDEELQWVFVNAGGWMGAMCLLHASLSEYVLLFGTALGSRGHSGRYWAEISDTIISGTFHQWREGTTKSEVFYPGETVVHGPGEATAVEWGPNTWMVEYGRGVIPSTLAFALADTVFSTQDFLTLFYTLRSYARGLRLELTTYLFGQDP

[4] = target: Cytochrome P450 3A4 (Homo sapiens, UniProt P08684); conditions: bti-tn-5b1-4; note: in other assays of this panel Not Active means under 50% inhibition at 10 µM
Sequence of Cytochrome P450 3A4 (P08684 whole entry): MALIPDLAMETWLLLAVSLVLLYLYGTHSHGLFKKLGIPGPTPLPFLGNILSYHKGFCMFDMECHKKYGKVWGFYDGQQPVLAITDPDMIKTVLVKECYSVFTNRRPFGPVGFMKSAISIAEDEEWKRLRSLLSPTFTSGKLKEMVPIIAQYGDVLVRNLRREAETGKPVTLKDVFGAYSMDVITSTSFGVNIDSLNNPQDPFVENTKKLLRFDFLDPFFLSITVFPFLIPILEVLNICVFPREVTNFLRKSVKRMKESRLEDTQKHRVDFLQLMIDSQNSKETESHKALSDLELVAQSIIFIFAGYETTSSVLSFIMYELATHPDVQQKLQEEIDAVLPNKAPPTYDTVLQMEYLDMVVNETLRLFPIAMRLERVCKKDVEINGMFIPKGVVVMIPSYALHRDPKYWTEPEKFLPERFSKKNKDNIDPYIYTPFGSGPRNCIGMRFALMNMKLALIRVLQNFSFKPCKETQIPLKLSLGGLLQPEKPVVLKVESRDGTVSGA

[5] = target: Adenosine receptor A2a (Homo sapiens, UniProt P29274); test: DRUGMATRIX: Adenosine A2A radioligand binding (ligand: […]); type: cell membranes, HEK293, Membrane; conditions: hek293; Not Active = under 50% inhibition at 10 µM
Sequence of Adenosine receptor A2a (P29274 whole entry): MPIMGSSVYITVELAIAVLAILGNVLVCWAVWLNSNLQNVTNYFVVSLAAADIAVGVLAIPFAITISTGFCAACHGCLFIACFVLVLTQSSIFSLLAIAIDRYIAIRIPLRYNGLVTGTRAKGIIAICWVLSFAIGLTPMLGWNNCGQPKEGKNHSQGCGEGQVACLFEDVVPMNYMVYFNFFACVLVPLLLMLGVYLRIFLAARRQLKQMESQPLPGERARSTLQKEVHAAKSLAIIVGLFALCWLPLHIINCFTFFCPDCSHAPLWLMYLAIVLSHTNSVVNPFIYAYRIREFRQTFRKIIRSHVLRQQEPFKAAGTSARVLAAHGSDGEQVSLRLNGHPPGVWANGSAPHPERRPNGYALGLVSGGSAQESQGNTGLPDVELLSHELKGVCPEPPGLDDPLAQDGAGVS

[6] = target: T1, Neuropeptide Y receptor type 1 (Homo sapiens, UniProt P25929); type: cell membranes, Membrane; conditions: sk-n-mc; note: in other assays of this panel Not Active means under 50% inhibition at 10 µM
T1 sequence (P25929 whole entry): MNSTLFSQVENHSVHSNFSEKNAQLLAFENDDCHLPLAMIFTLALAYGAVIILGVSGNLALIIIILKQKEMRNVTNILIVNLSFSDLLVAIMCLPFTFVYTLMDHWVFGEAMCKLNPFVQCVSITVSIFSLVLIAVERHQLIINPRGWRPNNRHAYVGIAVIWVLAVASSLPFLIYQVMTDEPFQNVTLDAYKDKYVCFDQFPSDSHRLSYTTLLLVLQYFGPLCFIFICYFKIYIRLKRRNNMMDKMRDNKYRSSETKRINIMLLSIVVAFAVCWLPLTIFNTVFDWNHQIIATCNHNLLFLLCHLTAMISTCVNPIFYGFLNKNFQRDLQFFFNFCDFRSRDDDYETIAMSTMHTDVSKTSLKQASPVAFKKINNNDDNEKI

[7] = target: T2, Caspase-1 (Homo sapiens, UniProt P29466); design: species or system Escherichia coli;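 note: Caspase-1 enzyme inhibition assay with a peptide substrate; in other assays of this panel Not Active means under 50% inhibition at 10 µM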
T2 sequence (P29466 whole entry): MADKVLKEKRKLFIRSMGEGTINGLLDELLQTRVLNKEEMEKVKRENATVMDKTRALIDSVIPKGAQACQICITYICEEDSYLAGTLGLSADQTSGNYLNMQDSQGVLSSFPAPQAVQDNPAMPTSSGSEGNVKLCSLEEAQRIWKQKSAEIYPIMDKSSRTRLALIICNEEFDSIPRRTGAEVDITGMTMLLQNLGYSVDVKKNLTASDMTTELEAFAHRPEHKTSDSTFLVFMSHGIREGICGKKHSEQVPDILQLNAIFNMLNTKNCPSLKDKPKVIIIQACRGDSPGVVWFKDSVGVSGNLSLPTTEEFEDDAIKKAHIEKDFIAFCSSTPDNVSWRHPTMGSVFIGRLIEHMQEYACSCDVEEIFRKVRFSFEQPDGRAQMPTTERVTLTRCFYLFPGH

Sequence of Mitogen-activated protein kinase 1 (P28482 whole entry): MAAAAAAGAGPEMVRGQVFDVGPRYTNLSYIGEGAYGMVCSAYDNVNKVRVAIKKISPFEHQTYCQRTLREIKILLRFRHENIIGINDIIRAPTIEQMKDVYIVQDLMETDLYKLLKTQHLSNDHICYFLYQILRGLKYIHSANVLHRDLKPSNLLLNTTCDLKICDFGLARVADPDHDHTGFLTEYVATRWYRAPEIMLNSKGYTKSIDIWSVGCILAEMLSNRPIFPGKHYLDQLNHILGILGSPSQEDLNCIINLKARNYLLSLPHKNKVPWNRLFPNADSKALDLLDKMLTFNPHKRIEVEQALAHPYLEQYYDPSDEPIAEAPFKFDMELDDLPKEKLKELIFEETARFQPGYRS

CC(=O)Nc1nnc(S(N)(=O)=O)s1 [ACETAZOLAMIDE]
Not Active: IC50 [1] | IC50 [2] | IC50 [3] | IC50 [4] | Ki [4] | IC50 [5] | IC50 [6] | IC50 [7]

THIMEROSAL
Not Active: IC50 [1] | Ki [1] | IC50 [2] | Ki [2] | IC50 [3] | Ki [3] | IC50 [4] | Ki [4] | IC50 [5] | Ki [5] | IC50 [6] | Ki [6] | IC50 [7] | Ki [7]

CNS(=O)(=O)Cc1ccc2[nH]cc(CCN(C)C)c2c1
Not Active: IC50 [1] | IC50 [2] | IC50 [3] | IC50 [4] | Ki [4] | IC50 [5] | IC50 [6] | IC50 [7]

C[C@]12CC[C@H]3[C@@H](CCC4=CC(=O)CC[C@@]43C)[C@@H]1CC[C@@H]2O [TESTOSTERONE]
Not Active: IC50 [1] | IC50 [2] | IC50 [3] | IC50 [4] | Ki [4] | IC50 [5] | IC50 [6] | IC50 [7]

C[C@@H]1C[C@H]2[C@@H]3CCC4=CC(=O)C=C[C@]4(C)C3=CC[C@]2(C)[C@H]1C(=O)CN1CCN(c2cc(N3CCCC3)nc(N3CCCC3)n2)CC1 [TIRILAZAD]
Not Active: IC50 [1] | IC50 [2] | IC50 [3] | IC50 [4] | Ki [4] | IC50 [5] | IC50 [6] | IC50 [7]

NC[C@H]1O[C@H](O[C@H]2[C@H](O)[C@@H](O[C@H]3O[C@H](CO)[C@@H](O)[C@H](N)[C@H]3O)[C@H](N)C[C@@H]2N)[C@H](N)C[C@@H]1O [TOBRAMYCIN]
Not Active: IC50 [1] | IC50 [2] | IC50 [3] | IC50 [4] | Ki [4] | IC50 [5] | IC50 [6] | IC50 [7]

CN[C@@H]1[C@H](O)[C@H](NC)[C@H]2O[C@@]3(O)C(=O)C[C@@H](C)O[C@H]3O[C@@H]2[C@H]1O [SPECTINOMYCIN]
Not Active: IC50 [1] | IC50 [2] | IC50 [3] | IC50 [4] | Ki [4] | IC50 [5] | IC50 [6] | IC50 [7]

O=P(O)(O)C(O)(Cc1cccnc1)P(=O)(O)O [RISEDRONIC ACID]
Not Active: IC50 [1] | IC50 [2] | IC50 [3] | IC50 [4] | Ki [4] | IC50 [5] | IC50 [6] | IC50 [7]
